The target in assay [1] is T1, GLUT1 (Mus musculus, UniProt P17809).
T1 sequence (P17809 1-492): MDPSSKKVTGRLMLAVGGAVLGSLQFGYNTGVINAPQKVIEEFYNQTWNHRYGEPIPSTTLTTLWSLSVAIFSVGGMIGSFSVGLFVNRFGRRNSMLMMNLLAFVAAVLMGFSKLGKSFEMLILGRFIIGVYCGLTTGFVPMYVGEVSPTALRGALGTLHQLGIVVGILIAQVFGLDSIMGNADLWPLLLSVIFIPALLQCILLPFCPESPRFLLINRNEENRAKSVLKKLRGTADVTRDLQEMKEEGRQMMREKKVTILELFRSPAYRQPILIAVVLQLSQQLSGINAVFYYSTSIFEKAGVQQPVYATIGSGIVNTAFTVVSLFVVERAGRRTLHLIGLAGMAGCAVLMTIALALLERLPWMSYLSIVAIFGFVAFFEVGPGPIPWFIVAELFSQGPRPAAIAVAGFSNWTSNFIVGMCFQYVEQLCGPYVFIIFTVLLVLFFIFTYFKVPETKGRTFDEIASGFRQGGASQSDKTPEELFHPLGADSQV
The assay can be described thus: Inhibition of 3H-2-deoxyglucose uptake in L929 cells. The format is cell-based.

For assay [2], the target named is T2, GLUT1 (Homo sapiens, UniProt P11166).
T2 sequence (P11166 1-492): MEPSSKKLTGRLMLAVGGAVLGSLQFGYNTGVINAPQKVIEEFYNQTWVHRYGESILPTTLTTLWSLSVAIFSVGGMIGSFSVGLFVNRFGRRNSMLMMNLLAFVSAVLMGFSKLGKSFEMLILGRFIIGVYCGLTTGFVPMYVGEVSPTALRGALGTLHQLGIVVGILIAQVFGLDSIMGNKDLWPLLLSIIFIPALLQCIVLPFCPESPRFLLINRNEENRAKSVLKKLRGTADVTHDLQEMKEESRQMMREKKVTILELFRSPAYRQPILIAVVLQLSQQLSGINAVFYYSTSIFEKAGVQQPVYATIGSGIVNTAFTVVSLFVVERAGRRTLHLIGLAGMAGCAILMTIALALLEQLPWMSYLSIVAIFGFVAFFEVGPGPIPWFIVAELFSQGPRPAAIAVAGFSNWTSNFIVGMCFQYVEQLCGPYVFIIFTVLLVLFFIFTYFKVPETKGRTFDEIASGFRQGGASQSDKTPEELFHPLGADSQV
The assay can be described thus: Reduction of specific 3H-cytochalasin B binding in HCLE cells. Type of assay: cell-based.

At GLUT1 [1], `COc1cc(/C=C/C(=O)CC(=O)/C=C/c2ccc(O)c(OC)c2)ccc1O` [Cur, Curcumin] registered an IC50 of 19 µM. Besides, the “Reduction of specific 3H-cytochalasin B binding in HCLE cells; 2DG uptake inhibi” value at GLUT1 [2] is reported as 80% reduction at 75.

These data come from publication PMC5006061 (Biochimie, 2016).
